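48-hour exposure; five concentrations; linearly interpolated endpoints. At the TGI there is no net growth.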
Assays:
Assay in all cases: NCI-60 cell line screen, 48 h
786-0 renal = test system: 786-0 renal
A498 renal = test system: A498 renal
A549 NSCLC = test system: A549 NSCLC
ACHN renal = test system: ACHN renal
CAKI-1 renal = test system: CAKI-1 renal
CCRF-CEM leukemia = test system: CCRF-CEM leukemia
COLO 205 colon = test system: COLO 205 colon
DU-145 prostate = test system: DU-145 prostate
EKVX NSCLC = test system: EKVX NSCLC
HCC-2998 colon = test system: HCC-2998 colon
HCT-116 colon = test system: HCT-116 colon
HCT-15 colon = test system: HCT-15 colon
HL-60(TB) leukemia = test system: HL-60(TB) leukemia
HOP-62 NSCLC = test system: HOP-62 NSCLC
HOP-92 NSCLC = test system: HOP-92 NSCLC
HS 578T breast = test system: HS 578T breast
HT29 colon = test system: HT29 colon
IGROV1 ovarian = test system: IGROV1 ovarian
K-562 leukemia = test system: K-562 leukemia
KM12 colon = test system: KM12 colon
MALME-3M melanoma = test system: MALME-3M melanoma
MDA-MB-231 breast = test system: MDA-MB-231 breast
MDA-MB-435 = test system: MDA-MB-435
MDA-N = test system: MDA-N
MOLT-4 leukemia = test system: MOLT-4 leukemia
NCI-H226 lung = test system: NCI-H226 lung
NCI-H23 lung = test system: NCI-H23 lung
NCI-H460 lung = test system: NCI-H460 lung
NCI-H522 lung = test system: NCI-H522 lung
NCI/ADR-RES ovarian = test system: NCI/ADR-RES ovarian
OVCAR-4 ovarian = test system: OVCAR-4 ovarian
OVCAR-5 ovarian = test system: OVCAR-5 ovarian
OVCAR-8 ovarian = test system: OVCAR-8 ovarian
PC-3 prostate = test system: PC-3 prostate
RPMI-8226 leukemia = test system: RPMI-8226 leukemia
RXF 393 renal = test system: RXF 393 renal
SF-268 CNS = test system: SF-268 CNS
SF-295 CNS = test system: SF-295 CNS
SF-539 CNS = test system: SF-539 CNS
SK-MEL-2 melanoma = test system: SK-MEL-2 melanoma
SK-MEL-28 melanoma = test system: SK-MEL-28 melanoma
SK-MEL-5 melanoma = test system: SK-MEL-5 melanoma
SK-OV-3 ovarian = test system: SK-OV-3 ovarian
SN12C renal = test system: SN12C renal
SNB-19 CNS = test system: SNB-19 CNS
SNB-75 CNS = test system: SNB-75 CNS
SR leukemia = test system: SR leukemia
SW-620 colon = test system: SW-620 colon
T-47D breast = test system: T-47D breast
TK-10 renal = test system: TK-10 renal
U251 CNS = test system: U251 CNS
UACC-257 melanoma = test system: UACC-257 melanoma
UACC-62 melanoma = test system: UACC-62 melanoma
UO-31 renal = test system: UO-31 renal
LOX IMVI melanoma = test system: LOX IMVI melanoma
M14 melanoma = test system: M14 melanoma
MCF7 breast = test system: MCF7 breast
OVCAR-3 ovarian = test system: OVCAR-3 ovarian

O=C1C(=O)N(c2cccc(C(F)(F)F)c2)C(=S)N1c1ccccc1
TGI (786-0 renal): > 100 µM | TGI (A498 renal): 59.5 µM | TGI (A549 NSCLC): > 100 µM | TGI (ACHN renal): 30.6 µM | TGI (CAKI-1 renal): 79.4 µM | TGI (CCRF-CEM leukemia): > 100 µM | TGI (COLO 205 colon): 30.5 µM | TGI (DU-145 prostate): > 100 µM | TGI (EKVX NSCLC): > 100 µM | TGI (HCC-2998 colon): > 100 µM | TGI (HCT-116 colon): > 100 µM | TGI (HCT-15 colon): 40.7 µM | TGI (HL-60(TB) leukemia): 84.5 µM | TGI (HOP-62 NSCLC): > 100 µM | TGI (HOP-92 NSCLC): 50.7 µM | TGI (HS 578T breast): > 100 µM | TGI (HT29 colon): > 100 µM | TGI (IGROV1 ovarian): 63.2 µM | TGI (K-562 leukemia): > 100 µM | TGI (KM12 colon): > 100 µM | TGI (MALME-3M melanoma): > 100 µM | TGI (MDA-MB-231 breast): 57.2 µM | TGI (MDA-MB-435): 82.4 µM | TGI (MDA-N): 71.9 µM | TGI (MOLT-4 leukemia): > 100 µM | TGI (NCI-H226 lung): 97.5 µM | TGI (NCI-H23 lung): 82.9 µM | TGI (NCI-H460 lung): 6.49 µM | TGI (NCI-H522 lung): 28 µM | TGI (NCI/ADR-RES ovarian): > 100 µM | TGI (OVCAR-4 ovarian): > 100 µM | TGI (OVCAR-5 ovarian): 80.5 µM | TGI (OVCAR-8 ovarian): > 100 µM | TGI (PC-3 prostate): > 100 µM | TGI (RPMI-8226 leukemia): > 100 µM | TGI (RXF 393 renal): > 100 µM | TGI (SF-268 CNS): > 100 µM | TGI (SF-295 CNS): > 100 µM | TGI (SF-539 CNS): 80.6 µM | TGI (SK-MEL-2 melanoma): 40.5 µM | TGI (SK-MEL-28 melanoma): 88.8 µM | TGI (SK-MEL-5 melanoma): 32 µM | TGI (SK-OV-3 ovarian): 70.4 µM | TGI (SN12C renal): > 100 µM | TGI (SNB-19 CNS): > 100 µM | TGI (SNB-75 CNS): > 100 µM | TGI (SR leukemia): > 100 µM | TGI (SW-620 colon): > 100 µM | TGI (T-47D breast): > 100 µM | TGI (TK-10 renal): 8.84 µM | TGI (U251 CNS): > 100 µM | TGI (UACC-257 melanoma): 71.8 µM | TGI (UACC-62 melanoma): 31.3 µM | TGI (UO-31 renal): 86.5 µM

COc1cc(C2c3cc4c(cc3OC(NNS(=O)(=O)c3ccc(C)cc3)C2C)OCO4)cc(OC)c1O (centres undefined)
TGI (786-0 renal): 42.9 µM | TGI (A498 renal): 25.2 µM | TGI (A549 NSCLC): > 100 µM | TGI (ACHN renal): 33.6 µM | TGI (CAKI-1 renal): 32.8 µM | TGI (CCRF-CEM leukemia): > 100 µM | TGI (COLO 205 colon): 43.5 µM | TGI (DU-145 prostate): > 100 µM | TGI (EKVX NSCLC): 49.8 µM | TGI (HCC-2998 colon): > 100 µM | TGI (HCT-116 colon): > 100 µM | TGI (HCT-15 colon): 22.6 µM | TGI (HL-60(TB) leukemia): 35.4 µM | TGI (HOP-62 NSCLC): 39.4 µM | TGI (HOP-92 NSCLC): 54.8 µM | TGI (HS 578T breast): 55.3 µM | TGI (HT29 colon): 49.6 µM | TGI (IGROV1 ovarian): 30.8 µM | TGI (K-562 leukemia): 45.7 µM | TGI (KM12 colon): 36.5 µM | TGI (LOX IMVI melanoma): 52.3 µM | TGI (M14 melanoma): 58.2 µM | TGI (MALME-3M melanoma): 25 µM | TGI (MCF7 breast): 36.1 µM | TGI (MDA-MB-231 breast): 57.5 µM | TGI (MDA-MB-435): 12.4 µM | TGI (MDA-N): 51.4 µM | TGI (MOLT-4 leukemia): 49.5 µM | TGI (NCI-H226 lung): 60.2 µM | TGI (NCI-H23 lung): 76.4 µM | TGI (NCI-H460 lung): 17.5 µM | TGI (NCI-H522 lung): 69.1 µM | TGI (NCI/ADR-RES ovarian): 45.1 µM | TGI (OVCAR-3 ovarian): 50 µM | TGI (OVCAR-4 ovarian): 40.1 µM | TGI (OVCAR-5 ovarian): > 100 µM | TGI (OVCAR-8 ovarian): > 100 µM | TGI (PC-3 prostate): 14 µM | TGI (RPMI-8226 leukemia): 41.9 µM | TGI (RXF 393 renal): 54 µM | TGI (SF-268 CNS): > 100 µM | TGI (SF-295 CNS): 17.7 µM | TGI (SF-539 CNS): 31.4 µM | TGI (SK-MEL-28 melanoma): > 100 µM | TGI (SK-MEL-5 melanoma): 25 µM | TGI (SK-OV-3 ovarian): 79.2 µM | TGI (SN12C renal): > 100 µM | TGI (SNB-19 CNS): 56.4 µM | TGI (SNB-75 CNS): 22.7 µM | TGI (SW-620 colon): > 100 µM | TGI (T-47D breast): > 100 µM | TGI (TK-10 renal): 39.9 µM | TGI (U251 CNS): 27.8 µM | TGI (UACC-257 melanoma): 38.4 µM | TGI (UACC-62 melanoma): 40.9 µM
